Source: patent US20240254135A1, “POLYPHENOL COMPOUNDS” (Epirium Bio Inc., priority 2022, published 2024)

Columns and labels:
PGC-1α [1] = assay: In vivo PGC-1α expression in liver of LPS-treated mice (ELISA); design: species or system C57BL/6 mice; conditions: for PGC-1α level / PGC-1α levels: liver, male C57BL/6 mice, LPS 3 mg/Kg IP + compound 10 mg/kg PO BID, 24 h post LPS; for PGC-1α levels: third set: Control 38327, LPS alone 16860
Description: C57BL/6 mice were procured from Vivo Bio Tech Ltd. Male mice were used for the study within an age range of 7 to 8 weeks. Body weight for these mice ranged from 20 g to 25 g. Animals were housed in a group of 6 in individually ventilated cages with temperature of 22±3° C., a relative humidity of 50 to 60%. The bottom of the cages was layered with sterilized corn cob. Animals were provided with gamma irradiated feed and autoclaved drinking water ad-libitum. The IVCs were maintained at an environment controlled (Centrally Air-Conditioned) room at a temperature of 22±3° C., a relative humidity of 50 to 60%, light intensity of 250-300 lux and a 12 hour light-dark cycle and noise intensity of <85 db.
Method of Preparation: LPS was dosed at 3 mg/kg in a dose volume of 10 ml/kg. For this, 0.3 mg/ml of LPS solution (Micronized suspension) was prepared. Butter paper was placed on analytical balance, tarred and LPS was placed on butter paper and its weight was noted down. LPS was transferred to 15 ml falcon tube. Then required amount of normal saline was added to it to make it 0.3 mg/ml. The solution was vortexed properly for 5 minutes and placed on ice. LPS solution was vortexed every time before aspiration and injection.
LPS was dosed at 3 mg/kg. Each test compound was dosed at 10 mg/kg, 2 hour and 15 min post LPS administration.
0.5% CMC was used as a vehicle with a dose volume of 10 ml/kg. An IP route was used for LPS, and a PO route was used for each test compound. Animals were sacrificed 24 hours post LPS dosing, and plasma were collected. PGC-1α level was measured in liver samples, and other tissues were stored for future analysis. PGC-1α level was checked using ELISA kit—CUSABIO Mouse PPARGCIA ELISA kit.
Protocol: One day before start of the experiment C57BL/6 Mice (Male, 6-7-week-old) were randomized on the basis of their body weight and were divided into groups. All the cages were assigned the respective group name. Animals inside each cage were marked on the base of the tails with permanent marker to distinguish each animal. Mice were fasted overnight. Next day morning animals were dosed with test item. Group 1 (Control) and Group 2 (LPS) Animals were dosed with vehicle (0.5% CMC). Test items were prepared in 0.5% CMC by trituration in mortar and pestle and addition of CMC drop by drop. 2 hour post test item/vehicle dosing animals were administered with LPS through IP route at 3 mg/kg of body weight. Group 1 (Control) animals were administered with saline. 0.25 hour post LPS administration, animals were again dosed with test item/vehicle. Post dosing, animals were returned to their respective cages and kept until termination of the study. No feed was offered to any group. Animals were provided with water. 24 hour post LPS administration, blood was collected from each animal under influence of mild isoflurane anesthesia through retro-orbital technique. Animals were sacrificed by CO2 asphyxiation technique. Post-termination, animals were dissected and vital organs, liver, brain, skeleton muscle were collected in Eppendorf tubes and flash frozen in liquid nitrogen. Serum was collected from whole blood by centrifuging it at 4° C. at 10,000 RPM and for 10 minutes. (Blood was left for 2 hour for coagulation before centrifugation) After completion of the experiment, all collected samples were stored at −80° C. until analysis.
Assay Methods/Protocol: The mortar was chilled with liquid nitrogen and then the small tissue pieces were grinded in the presence of liquid nitrogen to a fine powder. Immediately after grinding, transferred small amount of tissue powder to a 1.5 ml micro centrifuge tube containing 1.0 ml lysis buffer (RIPA buffer+Protease inhibitor). The samples were then incubated on ice for 2 hours. The samples were vortexed every 15 minutes. The samples were then centrifuged at 13000×g for 15 minutes at 2-8° C. After centrifugation the supernatant was removed carefully and pellet was discarded. […]

PGC-1α [2] = assay: In vitro PGC-1α expression in differentiated C2C12 cells (cell ELISA); type: cell-based
Description: Culture conditions: DMEM containing 25 mM glucose with 10% FBS supplementation; grown at 37° C. and 5% CO2.
Drugs: (+)Epicatechin, AICAR (direct activator of AMPK).
Assay Conditions: C2C12 cells were cultured in DMEM supplemented in 10% FBS up to 80% confluence. The cells were further trypsinized and seeded into a 96 well plate at a density of 5000 cells/well (well volume—100 μL) (Day 0). Following attachment, the cells were allowed to reach 80-90% confluence in the plate (typically 48 hours post seeding) and further differentiated using DMEM+2% Horse Serum (200 μL/well). The media was changed every day or at least every alternate day for 5 days to allow myoblasts to differentiate into myotubes. On day 7 (post seeding), the cells were treated with standards and test compounds for PGC-1 α assay.
PGC-1α assay: For the detection of PGC-1α, the cells were incubated with 0.5 μg/ml primary antibody (Merck, WH0010891M3) in PBS-T containing 5% BSA at 4° C. overnight. The cells were then washed three times with PBS-T for 5 minutes and incubated with 1:1000 dilution secondary antibody (Anti-rabbit IgG, HRP-linked Antibody, Cell Signaling) in PBS-T with 1% BSA for 1 hour at RT. Cells were washed three times with PBS-T for 5 minutes The cells were incubated with 100 μl TMB substrate solution for 30 minutes and the reaction was stopped with 100 μl of 2N H2SO4. […] (For plate optical density calculations, a background correction was taken at 540 nm). The final PGC-1α activation % is average of activation of 6 replicates.

[3] = as E21, relative to Control = 100, LPS alone 51
[4] = first set: Control 35303, LPS alone 18139
[5] = Table 3, differentiated C2C12 cells, 0.001 nM, DMSO control = 100%, OD@650 nm
[6] = as E23, relative to Control = 100, LPS alone 66
[7] = second set: Control 25677, LPS alone 16956
[8] = as E25, relative to Control = 100, LPS alone 44

SMILES | PGC-1α level (%) (PGC-1α [1]; [3]) | PGC-1α level (PGC-1α [1]; [4]) [pg/mL] | % Activity (PGC-1α expression) (PGC-1α [2]; [5]) [%] | PGC-1α level (%) (PGC-1α [1]; [6]) | PGC-1α level (PGC-1α [1]; [7]) [pg/mL] | PGC-1α level (%) (PGC-1α [1]; [8]) | PGC-1α levels (PGC-1α [1]) [pg/mL] | other results
COc1cc(C2Oc3ccccc3CC2O)ccc1F (single isomer, unassigned) [Compound 75b, 2-(4-fluoro-3-methoxyphenyl)chroman-3-ol] | 92 | 32354 | 125 | – | – | – | – | % Activity (PGC-1α expression) (PGC-1α [2]; Table 3, differentiated C2C12 cells, 0.0001 nM, DMSO control = 100%): 118%; % Activity (PGC-1α expression) (PGC-1α [2]; Table 3, differentiated C2C12 cells, 0.01 nM, DMSO control = 100%): 122%; % Activity (PGC-1α expression) (PGC-1α [2]; Table 3, differentiated C2C12 cells, 0.1 nM, DMSO control = 100%): 116%; % Activity (PGC-1α expression) (PGC-1α [2]; Table 3, differentiated C2C12 cells, 1 nM, DMSO control = 100%): 120%; % Activity (PGC-1α expression) (PGC-1α [2]; Table 4, differentiated C2C12 cells, 0.01 nM, OD at 5 minutes): 130%
Oc1cc(O)c2c(c1)OC(c1ccc(O)c(F)c1)C(O)C2 (single isomer, unassigned) [Compound 76b, 2-(3-fluoro-4-hydroxyphenyl)chromane-3,5,7-triol] | – | – | – | 81 | 20790 | – | – | % Activity (PGC-1α expression) (PGC-1α [2]; Table 5, differentiated C2C12, 5000 cells/well, 0.01 nM, DMSO = 100): 128%
Oc1ccc2c(c1)OC(c1ccc(O)c(C(F)(F)F)c1)C(O)C2 (single isomer, unassigned) [Compound 77b, 2-(4-hydroxy-3-(trifluoromethyl)phenyl)chromane-3,7-diol] | – | – | – | 148 | 37954 | – | – | % Activity (PGC-1α expression) (PGC-1α [2]; Table 6, C2C12 cells, 5000 cells/well, 0.01 nM): 138%; % Activity (PGC-1α expression) (PGC-1α [2]; Table 7, C2C12 cells, 5000 cells/well, 0.01 nM, DMSO = 100): 135%
Oc1cc(O)c2c(c1)OC(c1ccccc1)C(O)C2 (single isomer, unassigned) [Compound 78a, 2-phenylchromane-3,5,7-triol] | – | – | – | – | – | 96 | 36967 | % Activity (PGC-1α expression) (PGC-1α [2]; Table 8, C2C12 cells, 5000 cells/well, 0.01 nM, DMSO = 100): 128%
Oc1cc(O)c2c(c1)O[C@H](c1ccc(O)c(O)c1)[C@H](O)C2 [Epicatechin, (+)Epicatechin, reference compound] | 90 | 31729 | 119 | 122 | 31225 | 71 | 27272 | % Activity (PGC-1α expression) (PGC-1α [2]; Table 4, differentiated C2C12 cells, 0.001 nM, OD at 5 minutes): 120%; % Activity (PGC-1α expression) (PGC-1α [2]; Table 5, differentiated C2C12, 5000 cells/well, 0.001 nM, DMSO = 100): 133%; % Activity (PGC-1α expression) (PGC-1α [2]; Table 6, C2C12 cells, 5000 cells/well, 0.001 nM): 127%; % Activity (PGC-1α expression) (PGC-1α [2]; Table 7, C2C12 cells, 5000 cells/well, 0.001 nM, DMSO = 100): 133%; % Activity (PGC-1α expression) (PGC-1α [2]; Table 8, C2C12 cells, 5000 cells/well, 0.001 nM, DMSO = 100): 139%
